Like-named read-outs stand apart in the source and are kept apart here.
Key:
[1] = target: GSK3α (GST-full length GSK3α) (Homo sapiens (Human), UniProt P49840); test: GSK3α TR-FRET kinase assay; assay type: biochemical
In short: (§1)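 Compound preincubated 30 min, then 1 nM GST-full-length GSK3α or GSK3b run 100 min at ambient temperature with 200 nM biotinylated, S645-prephosphorylated glycogen synthase 631-650 peptide in Tris pH 7.5, MgCl2, DTT, BSA, 1% DMSO. ATP 4 μM (α) or 2 μM (β), or 1 mM. EDTA-quenched; Tb-anti-pSer641/streptavidin-d2 TR-FRET 665/615 ratio gave IC50.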

[2] = target: GSK3b (GST-full length GSK3b) (Homo sapiens (Human), UniProt P49841); test: GSK3b TR-FRET kinase assay; assay type: biochemical
In short: as §1

[3] = 1 nM GSK3α, 4 μM ATP, 30 minute preincubation, Table 16, read-out: GSK3-A TR-FRET BIOCHEMICAL (TR-FRET)
[4] = GSK3-A (TR-FRET 1 mM ATP), GMean, IC50, 1 mM ATP, geometric mean
[5] = 1 nM GSK3b, 2 μM ATP, 30 minute preincubation, Table 16, read-out: GSK3-B TR-FRET BIOCHEMICAL (TR-FRET)
[6] = GSK3-B (TR-FRET 1 mM ATP), GMean, IC50, 1 mM ATP, geometric mean
[7] = 1 nM GSK3α, 4 μM ATP, 30 minute preincubation, read-out: GSK3-A TR-FRET BIOCHEMICAL (TR-FRET), IC50
[8] = 1 nM GSK3b, 2 μM ATP, 30 minute preincubation, read-out: GSK3-B TR-FRET BIOCHEMICAL (TR-FRET), IC50
[9] = 1 nM GSK3α, 4 μM ATP, 30 minute preincubation, Table 16, read-out: GSK3-A TR-FRET BIOCHEMICAL (TR-FRET), IC50
[10] = 1 nM GSK3b, 2 μM ATP, 30 minute preincubation, Table 16, read-out: GSK3-B TR-FRET BIOCHEMICAL (TR-FRET), IC50
[11] = read-out: GSK3-B (TR-FRET 1 mM ATP), GMean, IC50, 1 mM ATP, geometric mean

Sequence of GSK3b (GST-full length GSK3b) (P49841 whole entry): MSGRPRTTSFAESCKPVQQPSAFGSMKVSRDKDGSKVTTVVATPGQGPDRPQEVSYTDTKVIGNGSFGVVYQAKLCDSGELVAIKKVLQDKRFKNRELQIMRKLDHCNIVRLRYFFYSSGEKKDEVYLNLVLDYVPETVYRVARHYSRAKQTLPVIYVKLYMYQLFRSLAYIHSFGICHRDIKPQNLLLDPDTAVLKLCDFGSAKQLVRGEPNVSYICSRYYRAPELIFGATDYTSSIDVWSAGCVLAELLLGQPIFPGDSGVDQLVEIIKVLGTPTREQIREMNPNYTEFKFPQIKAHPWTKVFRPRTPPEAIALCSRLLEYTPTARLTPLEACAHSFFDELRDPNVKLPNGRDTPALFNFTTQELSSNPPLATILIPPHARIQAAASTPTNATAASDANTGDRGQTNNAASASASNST
Sequence of GSK3α (GST-full length GSK3α) (P49840 whole entry): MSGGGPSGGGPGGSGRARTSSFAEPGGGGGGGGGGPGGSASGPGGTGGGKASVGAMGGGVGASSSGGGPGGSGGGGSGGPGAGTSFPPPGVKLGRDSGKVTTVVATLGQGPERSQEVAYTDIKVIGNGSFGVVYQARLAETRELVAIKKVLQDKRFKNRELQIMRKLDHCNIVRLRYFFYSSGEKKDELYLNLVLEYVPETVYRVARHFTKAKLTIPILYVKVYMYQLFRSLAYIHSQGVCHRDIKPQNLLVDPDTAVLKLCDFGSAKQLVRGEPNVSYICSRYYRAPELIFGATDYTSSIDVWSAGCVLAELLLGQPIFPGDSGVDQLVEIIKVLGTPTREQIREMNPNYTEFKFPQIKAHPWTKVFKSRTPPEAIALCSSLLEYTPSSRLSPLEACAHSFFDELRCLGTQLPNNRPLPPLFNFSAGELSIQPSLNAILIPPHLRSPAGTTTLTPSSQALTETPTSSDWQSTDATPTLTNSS

SMILES	IC50 [1, 3]	IC50 [2, 5]	IC50 [1, 9]	IC50 [2, 10]	other results
COc1ccccc1S(=O)(=O)N1CCC2(CC1)C1=C(CC(C)(C)CC1=O)Nc1n[nH]cc12 [Compound 893310]	≤ 0.1 µM	≤ 0.1 µM	–	–	IC50 [1, 4]: ≤ 0.1 µM; IC50 [2, 6]: 0.1 to 1 µM
CC1(C)CC(=O)C2=C(C1)Nc1n[nH]cc1C21CCN(S(=O)(=O)c2ccc(F)cc2)CC1 [Compound 893311]	≤ 0.1 µM	≤ 0.1 µM	–	–	IC50 [1, 4]: 0.1 to 1 µM; IC50 [2, 6]: 1 to 5 µM
CC1(C)CC(=O)C2=C(C1)Nc1n[nH]cc1C21CCC2(CC2)CC1 [Compound 893312]	–	–	–	–	IC50 [1, 7]: ≤ 0.1 µM; IC50 [2, 8]: ≤ 0.1 µM
CN1CCCC2(CC1)C1=C(CC(C)(C)CC1=O)Nc1n[nH]cc12 (centres unmarked) [Compound 893313]	–	–	> 5 µM	> 5 µM	–
CC(=O)N1CC2(C1)C1=C(CC(C)(C)CC1=O)Nc1n[nH]cc12 [Compound 893314]	–	–	1 to 5 µM	> 5 µM	–
CC1(C)CC(=O)C2=C(C1)Nc1n[nH]cc1C21CN(C(=O)c2ccccc2)C1 [Compound 893315]	–	–	> 5 µM	> 5 µM	–
C[C@@H]1C[C@H](C)C(=O)C2=C1Nc1n[nH]cc1C21CCOCC1 [Compound 893316]	–	–	≤ 0.1 µM	0.1 to 1 µM	–
C[C@H]1CCC[C@]2(C1)C1=C(CC(C)(C)CC1=O)Nc1n[nH]cc12 [Compound 893318]	0.1 to 1 µM	0.1 to 1 µM	–	–	–
C[C@H]1CCC[C@@]2(C1)C1=C(CC(C)(C)CC1=O)Nc1n[nH]cc12 [Compound 893319]	0.1 to 1 µM	0.1 to 1 µM	–	–	–
C[C@@H]1CCC[C@@]2(C1)C1=C(CC(C)(C)CC1=O)Nc1n[nH]cc12 [Compound 893320]	≤ 0.1 µM	≤ 0.1 µM	–	–	–
CCC1(c2cc(-c3ccncc3)ccc2C)C2=C(CC(C)(C)CC2=O)Nc2n[nH]cc21 (centres unmarked) [Compound 893323]	–	–	≤ 0.1 µM	0.1 to 1 µM	IC50 ([1]; read-out: GSK3-A (TR-FRET 1 mM ATP), GMean, IC50, 1 mM ATP, geometric mean): 0.1 to 1 µM; IC50 [2, 11]: > 5 µM
CC[C@]1(c2cc(-c3ccncc3)ccc2F)C2=C(CC(C)(C)CC2=O)Nc2n[nH]cc21 [Compound 893324]	–	–	1 to 5 µM	> 5 µM	–
CC1(C)CC(=O)C2=C(C1)Nc1n[nH]cc1C21CCS(=O)(=O)CC1 [Compound 896013]	0.1 to 1 µM	0.1 to 1 µM	–	–	–
CCC1(c2cccc(C(F)(F)F)c2)C2=C(CCN(Cc3ccccc3)C2=O)Nc2n[nH]cc21 (centres unmarked) [Compound 897749]	–	–	–	–	IC50 [1, 7]: 0.1 to 1 µM; IC50 [2, 8]: > 5 µM
C[C@@H]1CC[C@]2(C1)C1=C(CC(C)(C)CC1=O)Nc1n[nH]cc12 [Compound 897750]	≤ 0.1 µM	≤ 0.1 µM	–	–	–
C[C@H]1CC[C@@]2(C1)C1=C(CC(C)(C)CC1=O)Nc1n[nH]cc12 [Compound 897751]	≤ 0.1 µM	0.1 to 1 µM	–	–	–
CC1(C)CC(=O)C2=C(C1)Nc1n[nH]cc1C21Cc2ccccc2C1 [Compound 897752]	≤ 0.1 µM	0.1 to 1 µM	–	–	–
CC1(C)CC(=O)C2=C(C1)Nc1n[nH]cc1[C@@]21CCOC2(CCC2)C1 [Compound 897755]	–	–	–	–	IC50 [1, 7]: 1 to 5 µM; IC50 [2, 8]: 1 to 5 µM
CC1(C)CC(=O)C2=C(C1)Nc1n[nH]cc1[C@]21CCOC2(CCC2)C1 [Compound 897756]	–	–	–	–	IC50 [1, 7]: 0.1 to 1 µM; IC50 [2, 8]: 0.1 to 1 µM

SMILES	IC50 [1, 3]	IC50 [2, 5]	IC50 [1, 9]	IC50 [2, 10]	other results
C[C@@H]1C[C@]2(CCO1)C1=C(CC(C)(C)CC1=O)Nc1n[nH]cc12 [Compound 899559]	–	–	0.1 to 1 µM	1 to 5 µM	–
C[C@H]1C[C@@]2(CCO1)C1=C(CC(C)(C)CC1=O)Nc1n[nH]cc12 [Compound 899560]	0.1 to 1 µM	1 to 5 µM	–	–	–
CC1(C(F)(F)F)CC(=O)C2=C(C1)Nc1n[nH]cc1C21CCOCC1 (centres unmarked) [Compound 901458]	0.1 to 1 µM	0.1 to 1 µM	–	–	–
O=C1C2=C(Nc3n[nH]cc3C23CCOCC3)C2CCC1C2 (centres unmarked) [Compound 901464]	0.1 to 1 µM	0.1 to 1 µM	–	–	–
CC1(C)CC(=O)C2=C(C1)Nc1n[nH]cc1C21CCN(S(=O)(=O)c2ccccc2F)CC1 [Compound 901465]	≤ 0.1 µM	≤ 0.1 µM	–	–	IC50 [1, 4]: ≤ 0.1 µM; IC50 [2, 6]: 0.1 to 1 µM
CC1(C)CC(=O)C2=C(C1)Nc1n[nH]cc1C21CCN(S(=O)(=O)c2cccc(F)c2)CC1 [Compound 901466]	≤ 0.1 µM	≤ 0.1 µM	–	–	–
Cn1cc(S(=O)(=O)N2CCC3(CC2)C2=C(CC(C)(C)CC2=O)Nc2n[nH]cc23)cn1 [Compound 901467]	≤ 0.1 µM	≤ 0.1 µM	–	–	IC50 [1, 4]: 0.1 to 1 µM; IC50 [2, 6]: 1 to 5 µM
COc1cccc(S(=O)(=O)N2CCC3(CC2)C2=C(CC(C)(C)CC2=O)Nc2n[nH]cc23)c1 [Compound 901468]	≤ 0.1 µM	≤ 0.1 µM	–	–	IC50 [1, 4]: 0.1 to 1 µM; IC50 [2, 6]: 1 to 5 µM
COc1ccc(S(=O)(=O)N2CCC3(CC2)C2=C(CC(C)(C)CC2=O)Nc2n[nH]cc23)cc1 [Compound 901469]	–	–	–	–	IC50 [1, 4]: 0.1 to 1 µM; IC50 [2, 6]: 0.1 to 1 µM
CC1(C)CC(=O)C2=C(C1)Nc1n[nH]cc1C21CCN(S(=O)(=O)C2CC2)CC1 [Compound 901470]	≤ 0.1 µM	≤ 0.1 µM	–	–	IC50 [1, 4]: 0.1 to 1 µM; IC50 [2, 6]: 0.1 to 1 µM
Cn1ccc(S(=O)(=O)N2CCC3(CC2)C2=C(CC(C)(C)CC2=O)Nc2n[nH]cc23)n1 [Compound 901471]	≤ 0.1 µM	≤ 0.1 µM	–	–	IC50 [1, 4]: 0.1 to 1 µM; IC50 [2, 6]: 1 to 5 µM
CO[C@H]1C[C@@]2(C1)C1=C(CC(C)(C)CC1=O)Nc1n[nH]cc12 [Compound 901472]	–	–	> 5 µM	> 5 µM	–
CO[C@H]1C[C@]2(C1)C1=C(CC(C)(C)CC1=O)Nc1n[nH]cc12 [Compound 901473]	–	–	> 5 µM	> 5 µM	–
CC1(C)CC(=O)C2=C(C1)Nc1n[nH]cc1C21CN(S(=O)(=O)c2ccccc2)C1 [Compound 901474]	≤ 0.1 µM	≤ 0.1 µM	–	–	–
O=C1C[C@@]2(CCOC2)CC2=C1C1(CCOCC1)c1c[nH]nc1N2 [Compound 901475]	0.1 to 1 µM	0.1 to 1 µM	–	–	–
O=C1C[C@]2(CCOC2)CC2=C1C1(CCOCC1)c1c[nH]nc1N2 [Compound 901476]	0.1 to 1 µM	0.1 to 1 µM	–	–	–
CC1(C)CC(=O)C2=C(C1)Nc1n[nH]cc1[C@@]21CCOC2(CCCC2)C1 [Compound 907326]	–	–	–	–	IC50 [1, 7]: 0.1 to 1 µM; IC50 [2, 8]: 1 to 5 µM
CC1(C)CC(=O)C2=C(C1)Nc1n[nH]cc1[C@]21CCOC2(CCCC2)C1 [Compound 907327]	–	–	–	–	IC50 [1, 7]: 0.1 to 1 µM; IC50 [2, 8]: 1 to 5 µM
CC1(C)CC(=O)C2=C(C1)Nc1n[nH]cc1C21CCN(S(=O)(=O)CC2CC2)CC1 [Compound 909207]	–	–	–	–	IC50 [1, 7]: ≤ 0.1 µM; IC50 [1, 4]: ≤ 0.1 µM; IC50 [2, 8]: ≤ 0.1 µM; IC50 [2, 6]: 0.1 to 1 µM

Further lines, with some results ahead:

IC50 [1, 3]	IC50 [2, 5]	IC50 [1, 9]	IC50 [2, 10]	SMILES	other results
–	–	0.1 to 1 µM	1 to 5 µM	O=C1C[C@H](C(F)(F)F)CC2=C1C1(CCOCC1)c1c[nH]nc1N2 [Compound 901477]	–
–	–	0.1 to 1 µM	0.1 to 1 µM	O=C1C[C@@H](C(F)(F)F)CC2=C1C1(CCOCC1)c1c[nH]nc1N2 [Compound 901478]	–
–	–	≤ 0.1 µM	0.1 to 1 µM	CCC1(c2cccc(OC)c2)C2=C(CC(C)(C)CC2=O)Nc2n[nH]c(C(=O)OC)c21 (centres unmarked) [Compound 901480]	–
–	–	0.1 to 1 µM	1 to 5 µM	CCC1(c2cccc(N3CC(C)(C)C3C(C)C)c2)C2=C(CC(C)(C)CC2=O)Nc2n[nH]cc21 (centres unmarked) [Compound 902969]	–
–	–	≤ 0.1 µM	0.1 to 1 µM	CCC1(c2cccc(N(C)c3ccncn3)c2)C2=C(CC(C)(C)CC2=O)Nc2n[nH]cc21 (centres unmarked) [Compound 902970]	–
–	–	≤ 0.1 µM	≤ 0.1 µM	CCC1(c2cccc(N(C)c3cnccn3)c2)C2=C(CC(C)(C)CC2=O)Nc2n[nH]cc21 (centres unmarked) [Compound 902971]	–
–	–	0.1 to 1 µM	1 to 5 µM	CC[C@@H]1C[C@]2(CCO1)C1=C(CC(C)(C)CC1=O)Nc1n[nH]cc12 [Compound 907328]	–
–	–	0.1 to 1 µM	1 to 5 µM	CC[C@H]1C[C@@]2(CCO1)C1=C(CC(C)(C)CC1=O)Nc1n[nH]cc12 [Compound 907329]	–
–	–	0.1 to 1 µM	1 to 5 µM	CCC1(c2cccc(N(C)C(=O)CN3CCCC3)c2)C2=C(CC(C)(C)CC2=O)Nc2n[nH]cc21 (centres unmarked) [Compound 909202]	–
–	–	0.1 to 1 µM	1 to 5 µM	CCC1(c2cc(N3CCOCC3)ccc2F)C2=C(CC(C)(C)CC2=O)Nc2n[nH]cc21 (centres unmarked) [Compound 909203]	–
–	–	≤ 0.1 µM	≤ 0.1 µM	CCC1(c2cccc(S(=O)(=O)C3CC3)c2)C2=C(CC(C)(C)CC2=O)Nc2n[nH]cc21 (centres unmarked) [Compound 909204]	IC50 [2, 11]: 0.1 to 1 µM
–	–	≤ 0.1 µM	≤ 0.1 µM	CCCC(C(C)=O)c1cccc(C2(CC)C3=C(CC(C)(C)CC3=O)Nc3n[nH]cc32)c1 (centres unmarked) [Compound 909205]	–
–	–	≤ 0.1 µM	≤ 0.1 µM	CC1(C)CC(=O)C2=C(C1)Nc1n[nH]cc1C21CCN(S(=O)(=O)C2CCCC2)CC1 [Compound 909206]	IC50 [1, 4]: ≤ 0.1 µM; IC50 [2, 6]: 0.1 to 1 µM
≤ 0.1 µM	0.1 to 1 µM	–	–	O=C1CC2(CCC2)CC2=C1C1(CCOCC1)c1c[nH]nc1N2 [Compound 909208]	–

— patent US20250313563A1, “GLYCOGEN SYNTHASE KINASE 3 INHIBITORS AND USES THEREOF” (The Broad Institute, Inc., priority 2022, published 2025)
